Article PMC7179302, “Lead Optimization of Dehydroemetine for Repositioned Use in Malaria” (Antimicrobial Agents and Chemotherapy, 2020)
Structures can show the parent of a compound that is named as a salt.

Legend:
[1] = system: mitochondrial membrane potential of P. falciparum strain K1 trophozoites; assay: Rhodamine 123 staining for mitochondrial membrane potential, flow cytometry; type: cell-based, Plasmodium falciparum; conditions: deviation from infected blood without drugs
Description: Changes in mitochondrial membrane potential were measured using rhodamine 123 (excitation wavelength, 511 nm; emission wavelength, 534 nm), a membrane-permeating cationic fluorescent dye ([49]), which accumulates by electrostatic attraction in the mitochondria because of its negative transmembrane potential. A change in the dye’s concentration in the mitochondria is caused by a depolarization event and can be visualized as a shift in the fluorescence intensity of rhodamine 123 ([50]). Draq5 (excitation wavelength, 647 nm; emission wavelength, >665 nm) is a far-red fluorescent DNA dye which is cell permeating and was used to distinguish the parasites in flow cytometry in the allophycocyanin (APC)-Cy7-A channel. SYBR green was not preferred for this experiment as it emits in the same channel as rhodamine 123 and would result in the overlap of emission signals. Fluorescence microscopy was used to visualize the localization of rhodamine 123 within the cytoplasm of the parasites (Fig. 9).
A decrease in fluorescence intensity measured in the fluorescein isothiocyanate (FITC)-A channel indicates a loss of mitochondrial membrane potential. Atovaquone, a known mitochondrial inhibitor, was used as a control.
Compounds were then washed away by centrifuging the cultures, and a pellet was prepared for each drug concentration. Pellets were then incubated with 1 ml of 200 nM rhodamine 123 for 1 h, followed by a further incubation with 100 μl of 5 μM Draq5 for 20 min. After a wash with PBS, the experiment was read with a flow cytometer on the FITC channel. Loss of mitochondrial membrane potential was indicated by a decrease in fluorescence intensity.

[2] = system: K1 strain of P. falciparum; parameters: method as in PMID 15610563, PMID 24107123; conditions: mean ± standard deviation; cited from earlier work
Entamoeba histolytica = system: Entamoeba histolytica; parameters: method as in PMID 15610563, PMID 24107123; conditions: cited from earlier work
[3] = system: P. falciparum strain 3D7A; assay: 3H-hypoxanthine incorporation assay, strain 3D7A; type: cell-based; conditions: Plasmodium falciparum; sensitive strain 3D7A, 3H-hypoxanthine incorporation; read-out: IC50 (μM) 3D7A
Description: (§1) The cross-resistance assay used relies on the parasites’ incorporation of labeled 3H-hypoxanthine, which is proportional to P. falciparum growth. In vitro cross-resistance of the compounds is measured as the ratio between the IC50 for the tested P. falciparum strain and the IC50 for strain 3D7A. Every replicate from a multidrug-resistant (MDR) strain involved a simultaneous determination using a 3D7A replicate to avoid any artifact linked to experimental conditions.
(§2) The three strains used for the cross-resistance assay were 3D7A, Dd2, and W2, based on their resistance profiles; the assay was carried out by GSK, Tres Cantos. Strain 3D7A is chloroquine sensitive, strain Dd2 is resistant to chloroquine, mefloquine, and pyrimethamine ([57]), and strain W2 is resistant to chloroquine, quinine, pyrimethamine, cycloguanil, and sulfadoxine (from the Malaria Research and Reference Reagent Resource Center [MR4]) ([58]). A culture of red blood cells (RBCs) parasitized by the corresponding strain (0.5% parasitemia, 2% hematocrit) in RPMI 1640, […], and 5 μM hypoxanthine was exposed to 9 dilutions (3-fold serial dilutions) of the compound starting at 5 μM. One hundred microliters of culture volume was plated in 96-well flat-bottom microtiter plates with 0.5 μl drug (200× stock in DMSO). Plates were incubated for 24 h at 37°C, 5% CO2, 5% O2, 90% N2. Next, 3H-hypoxanthine was added and plates were incubated for another 24-h period. After that, parasites were harvested on a glass fiber filter using a TomTec cell harvester 96. Filters were dried, and melt-on scintillator sheets were used to determine the incorporation of 3H-hypoxanthine. Radioactivity was measured using a MicroBeta counter. […] IC50 values were determined using the Grafit 7 program ([41]).

HepG2 cells = assay: MTT assay for cell cytotoxicity against HepG2 cells; type: cell-based; conditions: HepG2 cells, 48 h; ± SD
Description: HepG2 cells (University of Salford stocks, purchased from American Type Culture Collection [ATCC], USA), were grown in medium consisting of RPMI 1640, 2 mM L-glutamine, HEPES, 10% fetal bovine serum, 1% nonessential amino acids, and 1% penicillin-streptomycin. Cells were calculated on a hemocytometer to make a new cell-medium solution to a concentration of 5,000 cells/100 μl, and 100 μl of this new cell solution was added into each well of the 96-well plate. After 24 h of incubation, 100-μl amounts of the drug prepared in the medium were added to the wells. This was repeated in triplicate, and the plate was incubated for a further 48 h ([56]). After the incubation period, 50 μl of MTT solution was added to each well and incubated for 3 h. The liquid in each well was aspirated carefully, 200 μl of DMSO was added to each well, and the results were read on the Ascent plate reader.

P. falciparum strain Dd2 = assay: microbe, parasite or virus in culture; type: cell-based; conditions: Plasmodium falciparum, DD2, read-out: IC50 (μM) Dd2
Description: as §1, §2

P. falciparum strain W2 = assay: microbe, parasite or virus in culture; type: cell-based; conditions: Plasmodium falciparum, W2, read-out: IC50 (μM) W2
Description: as §1, §2

Structure (SMILES) | Change in fluorescence intensity (FITC-A mean) of rhodamine 123 ([1]; at 10× IC50, 2 h) [%] | Change in fluorescence intensity (FITC-A mean) of rhodamine 123 ([1]; at IC50, 2 h) [%] | IC50 [2] [nM] | IC50 (Entamoeba histolytica) [nM] | IC50 [3] [µM] | LD50 (50% lethal dose), MTT assay (HepG2 cells) [nM] | IC50 (P. falciparum strain Dd2) [µM] | IC50 (P. falciparum strain W2) [µM]
O=C1C(O)=C([C@H]2CC[C@H](c3ccc(Cl)cc3)CC2)C(=O)c2ccccc21 [Atovaquone, atovaquone] | 43.17 | 41.95 | – | – | – | – | – | –
CC[C@H]1CN2CCc3cc(OC)c(OC)cc3[C@@H]2C[C@@H]1C[C@H]1NCCc2cc(OC)c(OC)cc21 [Emetine dihydrochloride, emetine dihydrochloride, reference compound] | 35.13 | 31.12 | 47 | 26800 ± 1270 | 0.234 | 199.2 ± 9.3 | 0.269 | 0.181
